Drawing on patent publication US10561611B2, “Combination liposomal pharmaceutical formulations” (Cureport, Inc., priority 2015, dated 2020), this text covers AUC for 1 compound.

The data set can be described thus: in vivo. The note with it: male, CD-1, mouse, iv. As for the experimental part:
Male CD-1 mice ranging from 20-25 g body weight were split up into groups of three. Each mouse was administered with a single dose of CPT319A or CPT307A at 5 mg/kg DXR by intravenous (IV) injection through the tail vein. A non-liposomal combination of DXR was used as the control. Blood samples were collected at 0.167, 1, 3, 8, 24, and 48 h after the injection. DXR plasma concentration was determined by liquid chromatography-tandem mass spectrometry (LC-MS-MS).

In general, AUC refers to the area under the concentration-time curve, a measure of exposure. As for `COc1cccc2c1C(=O)c1c(O)c3c(c(O)c1C2=O)C[C@@](O)(C(=O)CO)C[C@@H]3O[C@H]1C[C@H](N)[C@H](O)[C@H](C)O1` [Naked DXR, doxorubicin], the AUC was found to be 688 ng·h/mL. For the same compound, the AUC (5 mg/kg) came to 688 ng·h/mL.
